The record followed here is ChEMBL document CHEMBL1201862, “PubChem BioAssay data set” (2004).

The source made the active and inactive calls.

A short description of assay [1]: viability loss in HeLa cells – cytotoxicity control for MgcRacGAP inhibitor project, dose response (AID 624300). In kind it is functional.
For assay [2], the target named is T1, Rac GTPase-activating protein 1 (Homo sapiens, UniProt Q9H0H5).
T1 sequence (Q9H0H5 whole entry): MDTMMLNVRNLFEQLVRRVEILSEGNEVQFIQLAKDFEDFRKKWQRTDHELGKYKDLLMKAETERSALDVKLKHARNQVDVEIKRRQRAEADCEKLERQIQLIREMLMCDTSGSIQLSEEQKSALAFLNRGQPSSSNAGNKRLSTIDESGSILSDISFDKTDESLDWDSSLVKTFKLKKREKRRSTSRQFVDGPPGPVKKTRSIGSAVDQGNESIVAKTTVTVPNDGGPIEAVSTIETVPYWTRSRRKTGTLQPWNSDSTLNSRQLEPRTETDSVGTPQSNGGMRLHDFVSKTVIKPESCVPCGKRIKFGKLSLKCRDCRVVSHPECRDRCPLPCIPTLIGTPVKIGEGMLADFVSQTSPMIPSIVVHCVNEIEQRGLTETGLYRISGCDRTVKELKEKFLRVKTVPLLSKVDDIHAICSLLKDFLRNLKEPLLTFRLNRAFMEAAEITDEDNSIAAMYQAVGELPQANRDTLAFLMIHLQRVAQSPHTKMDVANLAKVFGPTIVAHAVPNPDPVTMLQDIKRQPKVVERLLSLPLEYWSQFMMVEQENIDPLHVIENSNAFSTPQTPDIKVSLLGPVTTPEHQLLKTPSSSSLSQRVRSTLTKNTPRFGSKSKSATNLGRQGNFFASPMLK
Description: blockers of MgcRacGAP-driven Rac1 GTP hydrolysis – biochemical, ADP Hunter fluorescence, primary and confirmatory, confirmation (AID 624330). Format: functional.

Assay [3] has as its target T2, Interleukin-8 (Homo sapiens, UniProt P10145).
T2 sequence (P10145 whole entry): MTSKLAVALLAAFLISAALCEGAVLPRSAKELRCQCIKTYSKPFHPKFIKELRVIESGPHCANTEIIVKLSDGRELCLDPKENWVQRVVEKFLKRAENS
Description: Dose Response confirmation of uHTS small molecule hits for cystic fibrosis induced NFkb Inhibitors in a PAF-induced IL8 counterscreen. In kind it is functional. The settings on record: read-out: IC50_Mean. (In general: Counterscreens check selectivity or assay interference.)

Assay [4] concerns the target T2, Interleukin-8. Put plainly: Dose Response confirmation of uHTS small molecule hits for cystic fibrosis induced NFkb Inhibitors in a TNFa-induced IL8 counterscreen. In kind it is functional. The following applies: read-out: IC50_Mean.
The test system of assay [5] is Vero. Put plainly: mammalian cell viability reduction – secondary assay, cytotoxicity control for West Nile virus antiviral project, dose response (AID 1650). Format: functional. The settings on record: Chlorocebus sabaeus.
For assay [6], the target named is Luciferin 4-monooxygenase (Photinus pyralis, UniProt P08659). Put plainly: inhibition of purified Photinus pyralis luciferase – biochemical, luminescence, dose response (AID 1891).
The next assay is described as follows: cells. In kind it is functional, cell-based. The following applies: HEK-CNG.
The nature of assay [7]: Luminescence Cell-Based Dose Confirmation HTS to Identify Inhibitors of Platelet Dense Granule Release. [Related pubchem assays: 1663 (Primary HTS), 1678 (Summary of Project)]. Format: functional.
Another assay concerns the target T3, Galanin receptor type 3 (Homo sapiens, UniProt O60755).
T3 sequence (O60755 whole entry): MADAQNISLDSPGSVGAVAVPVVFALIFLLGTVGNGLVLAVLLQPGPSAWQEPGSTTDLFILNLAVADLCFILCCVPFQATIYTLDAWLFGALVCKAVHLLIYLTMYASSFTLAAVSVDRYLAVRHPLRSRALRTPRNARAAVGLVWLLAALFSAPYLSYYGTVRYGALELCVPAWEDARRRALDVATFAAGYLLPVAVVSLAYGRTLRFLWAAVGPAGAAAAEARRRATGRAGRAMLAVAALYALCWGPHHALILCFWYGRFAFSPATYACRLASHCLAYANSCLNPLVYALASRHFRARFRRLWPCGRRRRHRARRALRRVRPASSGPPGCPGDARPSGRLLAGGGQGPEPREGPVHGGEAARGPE
Description: Fluorescence-based cell-based primary high throughput dose response assay to identify antagonists of the Galanin Receptor 3 (GalR3). In kind it is functional.

A short description of assay [8]: toxicity to human hepatoma HepG2 cells – cell-based, cherry-picked samples, cytotoxicity control, dose response (AID 1159577). Format: functional.
Assay [9] in a line: P. falciparum Dd2 growth inhibitors, dose response, SYBR Green, cherry-picked samples (AID 1159567). Format: functional, cell-based.
Assay [10] concerns the target T4, Fatty acid synthase (Homo sapiens, UniProt P49327). Put plainly: inhibition of human FAS-TE enzyme activity – biochemical, kinetic fluorescence intensity, dose response (AID 624326).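 Note: rate of fluorescence rise from hydrolysis of a fluorogenic O-methyl fluorescein ester substrate.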 Format: functional.
For assay [11], the target named is T4, Fatty acid synthase. Put plainly: inhibition of human FAS-TE enzyme activity – biochemical, endpoint fluorescence intensity, uHTS hits, dose response (AID 624327).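 Note: fluorescence from hydrolysis of an O-methyl fluorescein acyl ester substrate by the enzyme.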 In kind it is functional.
Another assay relates to INS1. Description: INS-1E survival protection against cytokine death – cell-based, luminescence, retest, dose response (AID 449756).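 Note: cell death triggered by IL-1 beta plus TNF-alpha plus IFN-gamma mixture; protective hits raise ATP signal compared with cytokine alone wells.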 Format: functional. The following applies: Rattus norvegicus.
A short description of assay [12]: viability loss in THP-1 monocytes – THP-1 cells, cytotoxicity control for Vif-APOBEC3G degradation inhibitor project, dose response (AID 1117359). In kind it is functional. The settings on record: THP-1.
Assay [13] in a line: HGIII-sPLA2 enzyme inhibition potency – biochemical, QFRET, IC50, dose response (AID 743457).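 Note: green fluorescence rise as the enzyme cleaves BODIPY PC-A2 in liposomes.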
Assay [14] can be described thus: Luminescence-based cell-based high throughput dose response assay to identify activators of the DAF-12 from the parasite S. stercoralis (ssDAF-12). Format: functional.
For assay [15], the target named is T5, Oxysterols receptor LXR-beta (Homo sapiens, UniProt P55055).
T5 sequence (P55055 whole entry): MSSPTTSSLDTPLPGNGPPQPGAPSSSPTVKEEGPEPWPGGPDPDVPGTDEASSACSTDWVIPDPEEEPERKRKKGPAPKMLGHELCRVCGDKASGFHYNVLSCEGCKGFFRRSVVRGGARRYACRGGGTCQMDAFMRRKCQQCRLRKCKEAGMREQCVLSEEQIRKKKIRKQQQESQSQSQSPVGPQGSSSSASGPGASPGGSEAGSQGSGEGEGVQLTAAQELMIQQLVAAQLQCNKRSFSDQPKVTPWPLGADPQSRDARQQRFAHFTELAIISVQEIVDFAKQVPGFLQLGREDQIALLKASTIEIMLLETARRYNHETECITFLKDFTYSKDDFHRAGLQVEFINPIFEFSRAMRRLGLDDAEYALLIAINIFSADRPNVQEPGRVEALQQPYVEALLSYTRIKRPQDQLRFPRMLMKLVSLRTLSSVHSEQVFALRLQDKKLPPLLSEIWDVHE
Description: LXR agonists, Gal4 luciferase reporter, dose response, counter-screen for ssDAF-12 agonist project, cell-based, luminescence, HEK293, S. stercoralis campaign (AID 720737). Format: functional. The following applies: read-out: IC50 (the source's name). On the technique in general: Reporter assays use an easily measured gene product as a stand-in for the process of interest.

Assay [16] deals with Vero. Description: cells. In kind it is functional. The following applies: Chlorocebus sabaeus.
A short description of assay [17]: Trypanosoma cruzi growth suppression in host cells – NIH3T3 host cells, beta-gal luminescence, confirmation (AID 2044).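 Note: intracellular parasites grown in NIH/3T3 mouse fibroblasts as host cells; luminescent beta-galactosidase reporter signal from transgenic T. cruzi replicating inside host cells; inhibitors lower the luminescence signal.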 In kind it is functional, cell-based.
Assay [18] can be described thus: NIH3T3 cell viability loss – ATP luminescence, mouse fibroblasts, counter-screen, dose response (AID 2010).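 Note: cells exposed to compound for about 90 hours before reading.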 In kind it is functional, cell-based.
A further assay deals with T6, Protein Tat (Human immunodeficiency virus type 1 group M subtype B (isolate HXB2)(HIV-1), UniProt P04608).
T6 sequence (P04608 whole entry): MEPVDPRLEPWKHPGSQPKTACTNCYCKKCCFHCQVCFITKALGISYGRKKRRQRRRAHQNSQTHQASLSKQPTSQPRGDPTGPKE
Format: functional.

T4 sequence (P49327 whole entry): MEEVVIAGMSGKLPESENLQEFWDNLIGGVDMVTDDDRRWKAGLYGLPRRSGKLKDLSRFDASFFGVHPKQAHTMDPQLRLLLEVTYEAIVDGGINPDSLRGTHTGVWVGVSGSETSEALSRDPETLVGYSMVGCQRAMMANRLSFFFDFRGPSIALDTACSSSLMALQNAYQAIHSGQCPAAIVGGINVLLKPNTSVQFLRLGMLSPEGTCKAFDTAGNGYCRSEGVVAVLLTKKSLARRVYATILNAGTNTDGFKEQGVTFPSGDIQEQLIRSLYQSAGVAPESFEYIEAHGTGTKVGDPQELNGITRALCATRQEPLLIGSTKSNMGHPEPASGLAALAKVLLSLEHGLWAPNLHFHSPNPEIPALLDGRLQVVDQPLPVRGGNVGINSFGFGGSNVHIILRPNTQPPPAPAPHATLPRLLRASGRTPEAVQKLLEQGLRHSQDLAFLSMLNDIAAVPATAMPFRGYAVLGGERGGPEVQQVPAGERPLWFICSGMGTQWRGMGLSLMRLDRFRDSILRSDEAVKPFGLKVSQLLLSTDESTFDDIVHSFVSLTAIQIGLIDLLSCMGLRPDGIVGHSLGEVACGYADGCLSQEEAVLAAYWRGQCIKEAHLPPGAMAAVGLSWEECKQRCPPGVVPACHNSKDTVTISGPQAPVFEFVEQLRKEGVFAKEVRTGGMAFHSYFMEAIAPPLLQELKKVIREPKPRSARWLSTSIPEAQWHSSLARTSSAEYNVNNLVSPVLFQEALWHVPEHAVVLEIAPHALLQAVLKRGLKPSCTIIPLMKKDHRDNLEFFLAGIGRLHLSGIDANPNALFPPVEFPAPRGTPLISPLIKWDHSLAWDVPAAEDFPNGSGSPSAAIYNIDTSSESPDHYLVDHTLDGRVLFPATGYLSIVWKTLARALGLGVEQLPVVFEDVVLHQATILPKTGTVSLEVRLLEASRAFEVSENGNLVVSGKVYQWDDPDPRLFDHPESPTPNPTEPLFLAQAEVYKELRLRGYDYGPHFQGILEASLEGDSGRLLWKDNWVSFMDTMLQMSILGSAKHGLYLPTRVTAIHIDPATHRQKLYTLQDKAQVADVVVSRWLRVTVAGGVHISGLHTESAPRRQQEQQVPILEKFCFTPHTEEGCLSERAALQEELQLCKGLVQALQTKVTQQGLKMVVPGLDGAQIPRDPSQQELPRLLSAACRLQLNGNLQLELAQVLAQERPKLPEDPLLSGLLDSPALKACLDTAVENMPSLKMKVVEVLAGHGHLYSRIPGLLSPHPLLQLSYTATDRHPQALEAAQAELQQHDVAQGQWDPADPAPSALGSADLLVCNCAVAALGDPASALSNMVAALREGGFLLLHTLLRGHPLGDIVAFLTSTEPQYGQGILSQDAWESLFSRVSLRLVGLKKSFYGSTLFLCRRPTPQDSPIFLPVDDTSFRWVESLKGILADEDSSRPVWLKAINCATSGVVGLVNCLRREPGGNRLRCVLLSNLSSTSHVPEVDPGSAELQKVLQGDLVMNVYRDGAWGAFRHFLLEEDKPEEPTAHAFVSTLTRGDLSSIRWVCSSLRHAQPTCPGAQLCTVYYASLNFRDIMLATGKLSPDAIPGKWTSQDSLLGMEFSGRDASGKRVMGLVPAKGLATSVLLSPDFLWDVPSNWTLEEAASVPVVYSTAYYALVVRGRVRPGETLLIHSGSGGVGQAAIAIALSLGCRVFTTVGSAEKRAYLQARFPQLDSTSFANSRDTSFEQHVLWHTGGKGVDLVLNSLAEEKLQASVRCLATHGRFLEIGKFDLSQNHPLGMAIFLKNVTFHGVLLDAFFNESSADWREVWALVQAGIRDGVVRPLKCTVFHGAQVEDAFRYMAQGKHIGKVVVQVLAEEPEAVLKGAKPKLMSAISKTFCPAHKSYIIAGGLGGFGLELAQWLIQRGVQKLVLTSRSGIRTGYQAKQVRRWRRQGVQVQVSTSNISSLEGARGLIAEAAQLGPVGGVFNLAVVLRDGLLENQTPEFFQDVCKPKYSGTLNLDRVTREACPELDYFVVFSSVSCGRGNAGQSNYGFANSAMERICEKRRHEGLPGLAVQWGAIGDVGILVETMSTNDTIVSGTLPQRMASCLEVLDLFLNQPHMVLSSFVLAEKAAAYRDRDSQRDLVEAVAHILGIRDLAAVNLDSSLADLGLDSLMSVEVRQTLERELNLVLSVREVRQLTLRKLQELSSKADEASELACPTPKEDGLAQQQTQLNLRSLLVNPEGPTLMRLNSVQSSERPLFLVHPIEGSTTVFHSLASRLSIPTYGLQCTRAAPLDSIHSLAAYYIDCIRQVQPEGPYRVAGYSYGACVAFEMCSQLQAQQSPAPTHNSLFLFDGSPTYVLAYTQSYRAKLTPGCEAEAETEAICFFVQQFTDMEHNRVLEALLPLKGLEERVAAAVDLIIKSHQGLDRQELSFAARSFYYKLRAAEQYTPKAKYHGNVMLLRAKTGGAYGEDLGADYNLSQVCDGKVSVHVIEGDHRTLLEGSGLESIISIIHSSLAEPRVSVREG
Sequence of Luciferin 4-monooxygenase (P08659 whole entry): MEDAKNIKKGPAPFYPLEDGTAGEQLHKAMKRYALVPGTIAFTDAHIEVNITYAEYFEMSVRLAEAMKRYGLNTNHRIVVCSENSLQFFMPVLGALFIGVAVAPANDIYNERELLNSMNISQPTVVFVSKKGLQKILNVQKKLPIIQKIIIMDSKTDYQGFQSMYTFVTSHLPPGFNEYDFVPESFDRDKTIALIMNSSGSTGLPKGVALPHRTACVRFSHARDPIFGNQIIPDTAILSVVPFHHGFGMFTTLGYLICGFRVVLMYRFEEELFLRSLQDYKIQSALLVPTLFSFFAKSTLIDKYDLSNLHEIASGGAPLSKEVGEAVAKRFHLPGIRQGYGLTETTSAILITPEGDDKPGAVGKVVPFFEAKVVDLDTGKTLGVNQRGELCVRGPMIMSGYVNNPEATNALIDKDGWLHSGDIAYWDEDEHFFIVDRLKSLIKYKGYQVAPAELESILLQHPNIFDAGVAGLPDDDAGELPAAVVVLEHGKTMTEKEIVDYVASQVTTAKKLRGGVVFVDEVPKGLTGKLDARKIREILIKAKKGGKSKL

With `COc1cc(/C=N/NC(=O)c2cccc(NC(=O)c3ccccc3C)c2)ccc1O`, the CC50 in assay [1] was 100 µM (active). The IC50 in assay [2] is 35.9 µM (active).
For the molecule `O=C(CC12CC3CC(CC(C3)C1)C2)Nc1nncs1`, the IC50 on Interleukin-8 [3] was 9.42 µM (active); on Interleukin-8 [4], 3.19 µM (active).
Take `CCc1ccc(-c2nc(CN3CCC(C(=O)N4CCN(c5ccccc5)CC4)CC3)c(C)o2)cc1`: the cytotoxic concentration (CC50) in the assay with Vero [5] was 16.3 µM (active).
As to `CC1CC(=O)NN=C1c1ccc(N)c([N+](=O)[O-])c1` (configuration not stated), the EC50 is > 112 µM (not active) in assay [6], > 29.9 µM (inactive) in the assay “cells” and < 0.088 µM (active) in [7]. Moreover, on Galanin receptor type 3, the IC50 was 0.26 µM (active).
As for `COc1cccc(C#Cc2ccc([C@@H]3[C@@H](CO)N(C(=O)C4CCCC4)[C@H]3C#N)cc2)c1`, the AC50 in [8] is > 39 µM (inactive); in [9] it was 4.4 µM (active).
Take `CCOC(=O)C1CCN(C(=O)COc2ccc([N+](=O)[O-])cc2)CC1`: the IC50 was 9.05 µM (active) at Fatty acid synthase [10] and 9.85 µM (active) on Fatty acid synthase [11].
Taken in the same sequence, the figures for `Cc1nc2ccc([N+](=O)[O-])cc2c(=O)n1Cc1ccc(Cl)cc1` were 1.05 µM (active) and 0.906 µM (active).
Regarding `CCCOC(=O)/C(C(=N)NCc1ccccc1)=C(/O)OCCC`, the AC50 in the assay with INS1 is 97 µM (active). Moreover, in assay [12], the CC50 is > 40 µM (active).
`N=C(N)SCc1ccc(Cl)c2ccccc12`: the IC50 in assay [13] is > 122 µM (inactive).
As for `CCOc1ccc(-c2noc(COC)n2)cc1OC`, the IC50 in assay [14] was > 67.5 µM (inactive). The EC50 in assay [15] is > 67.5 µM (inactive).
With `N=C(N)N/N=C/c1ccc(Cl)cc1Cl`, the CC50 in the assay with Vero [16] is 18.9 µM (active); in assay [1], 66.3 µM (active). For the same molecule, the EC50 in assay [17] is 0.204 µM (active); in [18], 19.4 µM (active).
Consider `O=C1OC(c2ccc(F)cc2)=C/C1=C\c1ccc([N+](=O)[O-])o1`, for which the EC50 is 0.501 µM (active) in assay [17] and > 60 µM (not active) in assay [18]. The IC50 on Protein Tat was > 100 µM (active).

By CC50 is commonly meant the concentration at which the toxic effect on the cells reaches its halfway point. What is called AC50 is the concentration at which the activity in the assay is half-maximal.
